# Data: patent publication US11306078B2, “Piperidine CXCR7 receptor modulators” (IDORSIA PHARMACEUTICALS LTD., priority 2016, dated 2022)
# Biological target: human chemokine receptor CXCR7 (Homo sapiens (Human), UniProt P25106)
# Experiment: Tango CXCR7-bla U2OS beta-arrestin recruitment assay (beta-lactamase reporter, FRET), antagonism of CXCL12/SDF1-α;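 further: compounds preincubated 15 min before CXCL12 addition, then 22 h at 37 °C, FRET emission ratio read with CCF4-AM substrate after 2 h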
# Assay type: cell-based
# Details: antagonistic effect on CXCR7; Tango CXCR7-bla U2OS cells, CXCL12/SDF1-α at its EC80
# Chain of human chemokine receptor CXCR7 (P25106 whole entry): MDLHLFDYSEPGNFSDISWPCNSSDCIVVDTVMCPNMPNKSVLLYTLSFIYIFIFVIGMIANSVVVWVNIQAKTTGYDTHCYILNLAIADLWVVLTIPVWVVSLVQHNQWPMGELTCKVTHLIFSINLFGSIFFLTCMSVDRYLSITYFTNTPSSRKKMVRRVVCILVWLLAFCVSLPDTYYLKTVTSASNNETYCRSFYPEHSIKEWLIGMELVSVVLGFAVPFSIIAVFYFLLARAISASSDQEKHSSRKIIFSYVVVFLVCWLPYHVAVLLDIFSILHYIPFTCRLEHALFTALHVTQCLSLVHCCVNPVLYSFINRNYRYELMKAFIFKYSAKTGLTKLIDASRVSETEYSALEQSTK
row,Compound,IC50
1,"C[C@@H](NC(=O)[C@]1(C)CN(C2CCCCC2)CC[C@H]1NC(=O)c1cc(-c2ccc(F)cc2F)on1)c1ccccn1 (relative stereo) [Example 5.001, (3R*,4R*)-1-Cyclohexyl-4-{[5-(2,4-difluoro-phenyl)-isoxazole-3-carbonyl]-amino}-3-methyl-piperidine-3-carboxylic Acid ((R)-1-pyridin-2-yl-ethyl)-amide]",0.368 µM
2,"O=C(N[C@@H]1CCN(C2CCCCC2)C[C@H]1C(=O)N[C@H]1C[C@@H]1c1ccccc1)c1cc(-c2c(F)cc(F)cc2F)on1 (single isomer, unassigned) [Example 1.046a]",0.474 µM
3,"CN(C)C(=O)[C@@H]1CN(C2CCCCC2)CC[C@H]1NC(=O)c1cn(-c2ccc(F)cc2F)nn1 (single isomer, unassigned) [Example 1.095a, (3R,4R)-1-Cyclohexyl-4-{[1-(2,4-difluoro-phenyl)-1H-[1,2,3]triazole-4-carbonyl]-amino}-piperidine-3-carboxylic acid dimethylamide or (3S,4S)-1-Cyclohexyl-4-{[1-(2,4-difluoro-phenyl)-1H-[1,2,3]triazole-4-carbonyl]-amino}-piperidine-3-carboxylic acid dimethylamide]",0.129 µM
4,"COCC(C)(C)NC(=O)[C@@H]1CN(C2CCCCC2)CC[C@H]1NC(=O)c1cc(-c2c(F)cc(F)cc2F)on1 (single isomer, unassigned) [Example 1.111a, (3R*,4R*)-1-Cyclohexyl-4-{[5-(2,4,6-trifluoro-phenyl)-isoxazole-3-carbonyl]-amino}-piperidine-3-carboxylic acid (2-methoxy-1,1-dimethyl-ethyl)-amide]",0.944 µM
5,"COCC(C)(C)NC(=O)[C@@H]1CN(C2CCCCC2)CC[C@H]1NC(=O)c1cc(-c2c(F)cc(F)cc2F)on1 (single isomer, unassigned) [Example 1.111b, (3R*,4R*)-1-Cyclohexyl-4-{[5-(2,4,6-trifluoro-phenyl)-isoxazole-3-carbonyl]-amino}-piperidine-3-carboxylic acid (2-methoxy-1,1-dimethyl-ethyl)-amide]",0.114 µM
6,"COCC(C)(C)NC(=O)[C@@H]1CN(CC2CC2)CC[C@H]1NC(=O)c1cc(-c2c(F)cc(F)cc2F)on1 (single isomer, unassigned) [Example 1.113a, (3R*,4R*)-1-Cyclopropylmethyl-4-{[5-(2,4,6-trifluoro-phenyl)-isoxazole-3-carbonyl]-amino}-piperidine-3-carboxylic acid (2-methoxy-1,1-dimethyl-ethyl)-amide]",0.561 µM
7,"COCC(C)(C)NC(=O)[C@@H]1CN(CC2CC2)CC[C@H]1NC(=O)c1cc(-c2c(F)cc(F)cc2F)on1 (single isomer, unassigned) [Example 1.113b, (3R*,4R*)-1-Cyclopropylmethyl-4-{[5-(2,4,6-trifluoro-phenyl)-isoxazole-3-carbonyl]-amino}-piperidine-3-carboxylic acid (2-methoxy-1,1-dimethyl-ethyl)-amide]",0.048 µM
8,"C[C@@H](NC(=O)[C@H]1CN(C2CCCCC2)CC[C@@H]1NC(=O)c1cn(-c2ccc(F)cc2F)nn1)c1ccccn1 (single isomer, unassigned) [Example 1.117a, (3S,4S)-1-Cyclohexyl-4-{[1-(2,4-difluoro-phenyl)-1H-[1,2,3]triazole-4-carbonyl]-amino}-piperidine-3-carboxylic acid ((R)-1-pyridin-2-yl-ethyl)-amide or (3R,4R)-1-Cyclohexyl-4-{[1-(2,4-difluoro-phenyl)-1H-[1,2,3]triazole-4-carbonyl]-amino}-piperidine-3-carboxylic acid ((R)-1-pyridin-2-yl-ethyl)-amide]",0.039 µM
9,"C[C@@H](NC(=O)[C@H]1CN(C2CCCC2)CC[C@@H]1NC(=O)c1cn(-c2ccc(F)cc2F)nn1)c1ccccn1 (single isomer, unassigned) [Example 1.118a, (3S,4S)-1-Cyclopentyl-4-{[1-(2,4-difluoro-phenyl)-1H-[1,2,3]triazole-4-carbonyl]-amino}-piperidine-3-carboxylic acid ((R)-1-pyridin-2-yl-ethyl)-amide or (3R,4R)-1-Cyclopentyl-4-{[1-(2,4-difluoro-phenyl)-1H-[1,2,3]triazole-4-carbonyl]-amino}-piperidine-3-carboxylic acid ((R)-1-pyridin-2-yl-ethyl)-amide]",0.075 µM
10,"C[C@@H](NC(=O)[C@@H]1CN(C2CCCCC2)CC[C@H]1NC(=O)c1cc(-c2c(F)cc(F)cc2F)on1)c1ccccn1 (single isomer, unassigned) [Example 1.121a, (3R*,4R*)-1-Cyclohexyl-4-{[5-(2,4,6-trifluoro-phenyl)-isoxazole-3-carbonyl]-amino}-piperidine-3-carboxylic acid ((R)-1-pyridin-2-yl-ethyl)-amide]",0.742 µM
11,"C[C@@H](NC(=O)[C@@H]1CN(C2CCCCC2)CC[C@H]1NC(=O)c1cc(-c2c(F)cc(F)cc2F)on1)c1ccccn1 (single isomer, unassigned) [Example 1.121b, (3R*,4R*)-1-Cyclohexyl-4-{[5-(2,4,6-trifluoro-phenyl)-isoxazole-3-carbonyl]-amino}-piperidine-3-carboxylic acid ((R)-1-pyridin-2-yl-ethyl)-amide]",0.002 µM
12,"C[C@@H](NC(=O)[C@@H]1CN(C2CCCC2)CC[C@H]1NC(=O)c1cc(-c2c(F)cc(F)cc2F)on1)c1ccccn1 (single isomer, unassigned) [Example 1.122a, (3R*,4R*)-1-Cyclopentyl-4-{[5-(2,4,6-trifluoro-phenyl)-isoxazole-3-carbonyl]-amino}-piperidine-3-carboxylic acid ((R)-1-pyridin-2-yl-ethyl)-amide]",0.525 µM
13,"C[C@@H](NC(=O)[C@@H]1CN(C2CCCC2)CC[C@H]1NC(=O)c1cc(-c2c(F)cc(F)cc2F)on1)c1ccccn1 (single isomer, unassigned) [Example 1.122b, (3R*,4R*)-1-Cyclopentyl-4-{[5-(2,4,6-trifluoro-phenyl)-isoxazole-3-carbonyl]-amino}-piperidine-3-carboxylic acid ((R)-1-pyridin-2-yl-ethyl)-amide]",0.017 µM
14,"C[C@@H](NC(=O)[C@H]1CN(CC2CC2)CC[C@@H]1NC(=O)c1cc(-c2c(F)cc(F)cc2F)on1)c1ccccn1 (single isomer, unassigned) [Example 1.123a, (3S,4S)-1-Cyclopropylmethyl-4-{[5-(2,4,6-trifluoro-phenyl)-isoxazole-3-carbonyl]-amino}-piperidine-3-carboxylic acid ((R)-1-pyridin-2-yl-ethyl)-amide or (3R,4R)-1-Cyclopropylmethyl-4-{[5-(2,4,6-trifluoro-phenyl)-isoxazole-3-carbonyl]-amino}-piperidine-3-carboxylic acid ((R)-1-pyridin-2-yl-ethyl)-amide]",0.004 µM
15,"C[C@@H](NC(=O)[C@H]1CN(C2CCCCC2)CC[C@@H]1NC(=O)c1cc(-c2ccc(F)cc2F)no1)c1ccccn1 (single isomer, unassigned) [Example 1.125a, (3S,4S)-1-Cyclohexyl-4-{[3-(2,4-difluoro-phenyl)-isoxazole-5-carbonyl]-amino}-piperidine-3-carboxylic acid ((R)-1-pyridin-2-yl-ethyl)-amide or (3R,4R)-1-Cyclohexyl-4-{[3-(2,4-difluoro-phenyl)-isoxazole-5-carbonyl]-amino}-piperidine-3-carboxylic acid ((R)-1-pyridin-2-yl-ethyl)-amide]",0.03 µM
16,"C[C@@H](NC(=O)[C@@H]1CN(C2CCCCC2)CC[C@H]1NC(=O)c1cc(-c2c(F)cc(F)cc2F)on1)c1cnccn1 (single isomer, unassigned) [Example 1.129a, (3R*,4R*)-1-Cyclohexyl-4-{[5-(2,4,6-trifluoro-phenyl)-isoxazole-3-carbonyl]-amino}-piperidine-3-carboxylic acid ((R)-1-pyrazin-2-yl-ethyl)-amide]",0.647 µM
17,"C[C@@H](NC(=O)[C@@H]1CN(C2CCCCC2)CC[C@H]1NC(=O)c1cc(-c2c(F)cc(F)cc2F)on1)c1cnccn1 (single isomer, unassigned) [Example 1.129b, (3R*,4R*)-1-Cyclohexyl-4-{[5-(2,4,6-trifluoro-phenyl)-isoxazole-3-carbonyl]-amino}-piperidine-3-carboxylic acid ((R)-1-pyrazin-2-yl-ethyl)-amide]",0.035 µM
18,"C[C@@H](NC(=O)[C@@H]1CN(C2CCCC2)CC[C@H]1NC(=O)c1cc(-c2c(F)cc(F)cc2F)on1)C1CCC1 (single isomer, unassigned) [Example 1.138a, (3R*,4R*)-1-Cyclopentyl-4-{[5-(2,4,6-trifluoro-phenyl)-isoxazole-3-carbonyl]-amino}-piperidine-3-carboxylic acid ((R)-1-cyclobutyl-ethyl)-amide]",0.437 µM
19,"C[C@@H](NC(=O)[C@@H]1CN(C2CCCC2)CC[C@H]1NC(=O)c1cc(-c2c(F)cc(F)cc2F)on1)C1CCC1 (single isomer, unassigned) [Example 1.138b, (3R*,4R*)-1-Cyclopentyl-4-{[5-(2,4,6-trifluoro-phenyl)-isoxazole-3-carbonyl]-amino}-piperidine-3-carboxylic acid ((R)-1-cyclobutyl-ethyl)-amide]",0.083 µM
20,"C[C@@H](NC(=O)[C@@H]1CN(CC2CC2)CC[C@H]1NC(=O)c1cc(-c2c(F)cc(F)cc2F)on1)C1CCC1 (single isomer, unassigned) [Example 1.139a, (3R*,4R*)-1-Cyclopropylmethyl-4-{[5-(2,4,6-trifluoro-phenyl)-isoxazole-3-carbonyl]-amino}-piperidine-3-carboxylic acid ((R)-1-cyclobutyl-ethyl)-amide]",0.79 µM
21,"C[C@@H](NC(=O)[C@@H]1CN(CC2CC2)CC[C@H]1NC(=O)c1cc(-c2c(F)cc(F)cc2F)on1)C1CCC1 (single isomer, unassigned) [Example 1.139b, (3R*,4R*)-1-Cyclopropylmethyl-4-{[5-(2,4,6-trifluoro-phenyl)-isoxazole-3-carbonyl]-amino}-piperidine-3-carboxylic acid ((R)-1-cyclobutyl-ethyl)-amide]",0.029 µM
